Assay results as given in patent EP1537858A1, “Drug delivery vehicles and uses thereof” (Vectron Therapeutics AG, priority 2003, dated 2005).

What was measured:
[1] = Pharmacokinetics of doxorubicin in blood after i.v. injection (HPLC); format: in vivo; conditions: i.v. tail vein, nude mice, blood doxorubicin by HPLC
Protocol: AVE9-dox and AVE95-dox were injected i.v. into the tail veins of nude mice and blood concentration of doxorubicin was determined by HPLC at varying time points. In this experiment we included unencapsulated doxorubicin as well as doxorubicin encapsulated into pegylated "stealth liposomes" (Doxil®). Compared to AVE9-dox AVE95-dox caused a prolonged serum residence time of doxorubicin (50% value of 11 min for AVE9-dox versus 23 min for AVE95-dox). Unencapsulated dox was rapidly cleared from the circulation (50% value = < 3 min). In contrast, after injection of Doxil® more than 50% of initial doxorubicin was present in the blood after 6 hours (Fig. 4). […] Doxorubicin concentrations in the liver and spleen were increased 3-fold after applying AVE95-dox compared to free doxorubicin.

[2] = tested on: C26 murine colon carcinoma; assay: Pharmacodynamics of doxorubicin liposomes in C26 tumor model; format: in vivo, nude mice
Protocol: For further studies pharmacodynamic experiments in a C26 murine colon carcinoma model were performed. For this purpose tumor cells were injected subcutaneously into nude mice. After tumors had reached a size of approximately 50-100 mm^3 tumor-bearing mice were treated with doxorubicin-loaded liposomes injecting a doxorubicin dose of 4 mg/kg body weight at days 1, 3 and 6.
In a first experiment AVE9-dox and AVE95-dox (see example 10) were compared to unencapsulated doxorubicin. In this experiment we observed reduced tumor growth and a prolonged survival time for animals treated with AVE95-dox compared to animals treated with AVE9-dox or free doxorubicin. […] The difference between free doxorubicin and AVE95-dox at day 12 was statistically significant (p = 0.05). This was also reflected by the mean survival time which was 20 days for AVE95-dox treated animals, 16 days for AVE9-dox treated animals, 14 days for doxorubicin-treated animals, and 12 days for untreated animals.
In a second experiment free doxorubicin was compared to AVE95-dox, when administered either at 4 or at 8 mg/kg body weight to C26-tumor-bearing mice. […] In contrast, tumor growth was further reduced using 8 mg/kg AVE95-dox compared to […] AVE95-dox.
In a third experiment AVE95-dox was compared to Doxil® for the treatment of C26 tumors applying a dose of 4 mg/kg.
In a final set of experiments, AVE95-dox liposomes were compared to a AVE95-based formulation containing varying sphingomyelin concentrations. Firstly, AVE95-dox was compared to the same formulation in which sphingomyelin was substituted by phosphatidylcholine (AVE95-0SM-dox). […] Secondly, AVE95-dox was compared to liposomes consisting of 50 mol% cholesterol, 30 mol% sphingomyelin and 20 mol% phosphatidylcholine. Thus, this formulation contained the same cholesterol concentration but approximately twice as much sphingomyelin as AVE95 liposomes.

[3] = tested on: C26 murine colon carcinoma; assay: Pharmacodynamics of mitoxantrone liposomes in C26 tumor model; format: in vivo, nude mice; conditions: mitoxantrone dose of 4 mg/kg at days 0, 2 and 5
Protocol: Efficacy of AVE95-MRX was analyzed in a C26 murine colon carcinoma model. For this purpose tumor cells were injected subcutaneously into nude mice. After tumors had reached a size of approximately 50-100 mm^3, tumor-bearing mice were treated with mitoxantrone-loaded liposomes injecting a mitoxantrone dose of […] or 4 mg/kg body weight at days 0, 2 and 5. Unencapsulated mitoxantrone was included in these experiments. […] However, at this dose tumor growth was further reduced for AVE95-encapsulated mitoxantrone compared to free mitoxantrone (Fig. 9). This improved efficacy compared to free mitoxantrone was also observed at a mitoxantrone concentration of […].

[4] = Pharmacokinetics and organ accumulation of mitoxantrone after i.v. injection (HPLC); format: in vivo; conditions: i.v. tail vein, nude mice, blood mitoxantrone by HPLC
Protocol: AVE95-MXR liposomes were injected i.v. into the tail veins of nude mice and blood concentration of mitoxantrone was determined by HPLC at varying time points. In this experiment we included unencapsulated mitoxantrone. AVE95-MXR caused a prolonged serum residence time of mitoxantrone (50% value = 110 min) compared to unencapsulated mitoxantrone which was rapidly cleared from circulation (50% value = < 3 min) (Fig. 8). […] Mitoxantrone concentrations in the liver and spleen were similar to free mitoxantrone.

Row | SMILES | 50% value (serum residence time of doxorubicin) [1] [min] | tumor growth compared to untreated control animals ([2]; 4 mg/kg at days 1, 3 and 6, first experiment) | lethality ([2]; at 8 mg/ml (so in the source), C26-tumor-bearing mice) | mean survival time ([2]; doxorubicin 4 mg/kg body weight at days 1, 3 and 6, first experiment) [days] | tumor growth at 8 mg/kg compared to 4 mg/kg ([2]; second experiment, 4 or 8 mg/kg body weight) | inhibition of tumor growth [3] | 50% value (serum residence time of mitoxantrone) [4] [min]
1 | COc1cccc2c1C(=O)c1c(O)c3c(c(O)c1C2=O)C[C@@](O)(C(=O)CO)C[C@@H]3O[C@H]1C[C@H](N)[C@H](O)[C@H](C)O1 [doxorubicin] | < 3 | reduced tumor growth compared to untreated control animals | increased lethality | 14 | No differences in tumor growth | – | –
2 | O=C1c2c(O)ccc(O)c2C(=O)c2c(NCCNCCO)ccc(NCCNCCO)c21 [mitoxantrone, Mitoxantrone] | – | – | – | – | – | strong inhibition of tumor growth | < 3
